# According to patent US20240216476A1, “COMBINATION OF BITTER RECEPTOR AGONIST AND GUT-SIGNALING COMPOUND” (AARDVARK THERAPEUTICS, INC., priority 2021, published 2024):
# Where “and” joins values, the source holds several entries; their conditions need not be identical. Equal entries are not always repeated. Entries after “also recorded” stand apart in the source; their conditions may differ. Where two headings read alike, the source gives them in different places. Marks after values point to notes of the source that are not given here.
# Assays:
# [1] = human, in vivo, po
# Excerpt: Accordingly, the gut peptide hormone data in both the in vivo studies in the examples herein and the phase 1 clinical trial data in Example 3 show synergy for the treatment and/or management of glucagon-related diseases, disorders or conditions, various indications. […] The clinical data also corroborated the DIO mouse data (Example 2). Yet, the marketers of GLP-1 agonists (like those available from Novo Nordisk, Lilly) claim only GLP-1 is important for both diabetes and weight loss. Also, DPP-4 is an enzyme that degrades GLP-1 and PYY to give both of those hormones short half-lives. Accordingly, in some embodiments herein, a DPP-4 inhibitor is used as part of the API combination.
# Therefore, both the pharmacokinetic data in a clinical trial (Example 3) for DA and the pharmacokinetic data published for commercially-marketed sitagliptin, support non-cumulative toxicity risk. Accordingly, DPP-4i drugs and the denatonium salts listed herein are an effective oral combination for the treatment of obesity.
# For sitagliptin as a single agent, the current guidelines indicate a daily dose of 100 mg PO QD (notwithstanding for those with renal impairment, recommended doses can be as low as 25 mg to 50 mg PO QD). […] In view of DA's pharmacokinetics (substantial gut restriction) and relatively non-toxic nature, the optimal dose ranges can be safely adjusted higher. […]
# [2] = test system: gut peptide hormones GLP-1, GLP-2 and PYY; assay: Phase 1 clinical trial of DA: gut peptide hormones before and one hour after a single oral dose (Example 3); assay type: in vivo, human; conditions: in words, single dose DA 240 mg tablet vs placebo
# Protocol: This Example provides data of three gut peptide hormones from a phase 1 clinical trial of denatonium acetate after a single dose of DA at 240 mg in a tablet in the formulation disclosed herein. The subjects were either placebo or 240 mg DA and blood samples were taken just prior to dosing and one hour after oral dosing.
# [3] = test system: high-fat diet-induced obese (DIO) mice; assay type: in vivo; conditions: in words
# Protocol: This Example provides the results from an in vivo study of denatonium acetate and sitagliptin in high-fat diet-induced obese (DIO) mice. C57BL/6NTac mice (at least 12 weeks of age) were fed with a high fat diet. All mice were dosed orally by gavage as (a) Vehicle group (N=15) dosed with distilled water BID, (b) DA group (N=15) dosed at 75 mg/kg (denatonium weight) BID; (c) sitagliptin group (N=15) dosed by gavage with 10 mg/kg QD; and (d) DA+ sitagliptin group (N=15) treated with DA at 75 mg/kg (denatonium based weight) BID and sitagliptin at 10 mg/kg by gavage QD. The groups were dosed for 8 weeks followed by a 5-7 day […] period. Body weight and body weight changes were measured three times per week. Serum biomarker levels for blood glucose (after fasting 6-8 hours), blood insulin, percentage of blood HvA1c, HDL, LDL, total triglycerides (TG), total cholesterol (TC) and bile acid were measured twice during the study at day 28 and at the end (day 56) of the study. Cumulative food intake and water consumption for each animal was measured.
# [4] = test system: C57Bl/6J mice fed with high-fat diet; assay: DA in C57Bl/6J mice fed with high-fat diet, 8 weeks (Table 11); assay type: in vivo, mouse
# Excerpt: Similarly, Table 11 provides a comparison of denatonium acetate (DA) with DPP-4 inhibitors in similar ob/ob mice model. The data for the DPP-4 inhibitors was obtained from Am. J. Physiol. Endocrinol. Metab. 2011; 300(2); E410-E421. Biochim. Biophys. Acta Gen. Subj. 2018; 1862(3):403-413. PLOS One. 2012; 7(6):e38744; and Aging Cell. 2019; 18(2):e12883.
# [5] = Appetite suppression effect of DA in animals; assay type: in vivo
# Excerpt: Thus, twice daily dosing is preferred for abrogation of appetite throughout the day. […] Therefore, the preferred dosing for MetS treatment is QD.
# [6] = test system: high fat diet induced obese (DIO) mouse model; assay: 4-week study of DA, liraglutide or their combination in high fat diet induced obese (DIO) mice (Example 2); assay type: in vivo
# Protocol: After arrival at the testing facility, all animals were acclimated to the vivarium for a period no less than 3 days and placed on a 60% Fat Rodent Diet (D12492; Research Diets), 12:12 dark/light cycle and group housed, 2-3 in hepa-filtered cages. All treatments were continued for four weeks. During the study period, gross observation (animal behavior and clinical signs) was conducted, and body weight measurement was performed three times per week for each animal. At the end of the study, all animals were fasted overnight before measurements were taken for serum levels of glucose, insulin, hemoglobin A1c (HbA1c), low-density lipoprotein (LDL) cholesterol, high-density lipoprotein (HDL) cholesterol, triglyceride (TG), and bile acid (BA). Statistical analysis of data was performed using one tail Student's t-test on Excel.
# ob/ob mice = assay: DA in ob/ob mice fed with high-fat diet, 8 weeks (Table 10); assay type: in vivo, mouse; conditions: DA 50 mg/kg BID for 8 weeks
# Excerpt: The data for the DPP-4 inhibitors was obtained from J. Clin. Biochem. Nutr. 2015; 57(3):244-53. Acta Pharmacol. Sin. 2012; 33(8): 1013-22. J. Pharmacol. Exp. Ther. 2012; 342(1): 71-80; and Eur. J. Pharmacol. 2008; 588(2-3):325-32.
# [7] = test system: AMLN-diet induced mice (fatty liver disease/NASH model); assay type: in vivo; conditions: in words
# Excerpt: This Example provides the results obtained from an in vivo mouse model of fatty liver disease treatment to investigate the therapeutic effect of DA on the treatment of NASH versus positive control semaglutide (a GLP-1 agonist marketed drug for lowering HbA1c). This study used a positive control semaglutide, a vehicle control, study drug DA and a combination of semaglutide and DA. Mouse strain (B6 mice) was used, and the animals were already adults (23 weeks old) when the study began because the animals were already fed an AMLN diet for 17 weeks prior to the study being initiated. The study dose began at 75 mg/kg BID.
# The study included 3 groups of 10 mice each, (A) vehicle control with distilled water by gavage BID, (B) DA by gavage BID, and (C) semaglutide […] sc QD. Body weights and changes were measured 3× per week. Serum metabolic markers (blood glucose, blood insulin, HbA1c, HDL, LDL triglycerides and bile acids) were measured at beginning of dosing (baseline) and end of study. At the end of the study, histopathology of liver samples and serum levels of inflammatory biomarkers (IL-6, TNFα, CK-18 and TGF-β) were evaluated. Histopathology was performed blindly with a scoring scale according to NAFLD Activity Score and Fibrosis Score according to Table 13. Table 14 identifies the kits and equipment used to measure serum parameters.
# [8] = in vivo; cited from earlier work
# [9] = pig, in vivo; cited from earlier work
# [10] = in vivo; cited from earlier work; remark: listed apart in the source
# [11] = each animal, end of study (Day 31), DA 75 mg/kg PO BID, liraglutide 200 μg/kg SC BID, 4-week dosing
# [12] = group mean, end of study (Day 31), DA 75 mg/kg PO BID, liraglutide 200 μg/kg SC BID, 4-week dosing
# [13] = in words, vs vehicle, Day 31, DA 75 mg/kg PO BID, liraglutide 200 μg/kg SC BID
# [14] = in words, Day 31, 4-week dosing
compound,measurement,setting,value
"CC(=O)[O-].CC[N+](CC)(CC(=O)Nc1c(C)cccc1C)Cc1ccccc1 [DA, denatonium acetate]",gut-restricted,[1],~99%
same,safe dosing in phase 1 clinical trial,[1],safely dosed to 240 mg PO BID
same,percent change for GLP-1 between time 0 and one hour after oral dosing,[2],the difference was significant
same,GLP-2 gut peptide hormone,[2]; one hour after dosing,trend for GLP-2 gut peptide hormone increase
same,PYY gut peptide hormone,[2]; one hour after dosing,trend for PYY gut peptide hormone increase
same,fasting blood glucose levels,"[3]; vs vehicle controls, day 28 and day 56",significantly decreased fasting blood glucose levels
same,high-density lipoprotein (HDL) levels,"[3]; vs vehicle controls, day 56 (FIG. 22B)",significantly decreased high-density lipoprotein (HDL) levels
same,weight loss,[3]; 56-day study summary,significant weight loss; also recorded: statistically significant reduction of weight in the DA group versus the sitagliptin group
same,effect on body weight (relative body weight percentage and relative body weight change),"[3]; DA 75 mg/kg BID, sitagliptin 10 mg/kg QD by gavage, 8 weeks",much greater effect on body weight
same,effect on body weight,[3]; day 56,significant effect on body weight
same,"translationally relevant biomarkers (blood glucose, HbA1C, insulin, triglycerides, LDL cholesterol, total cholesterol)",[3]; relative to sitagliptin alone,superior benefit relative to sitagliptin alone
same,Control-adjusted Percent Change in Body Weight Gain,[4]; DA 75 mg/kg BID for 8 weeks,−33.9%*
same,Control-adjusted Percent Change in Fasting Blood Glucose,[4]; DA 75 mg/kg BID for 8 weeks,−5.3%
same,Control-adjusted Percent Change in GLP-1 Level,[4]; DA 75 mg/kg BID for 8 weeks,+27.5%*
same,Control-adjusted Percent Change in Insulin Level,[4]; DA 75 mg/kg BID for 8 weeks,−42.9%
same,Control-adjusted Percent Change in Lipid Levels: LDL,[4]; DA 75 mg/kg BID for 8 weeks,−18.3% in LDL
same,Control-adjusted Percent Change in HbA1c Level,"[4]; DA 75 mg/kg BID, at the end of Week 4",−3.7%* (at the
same,duration of observed appetite suppression effect,[5],about 8 hours
same,Body Weight Gain,[6]; [11],10.1 g and 6.7 g and 7.2 g (3×) and 9.6 g (2×) and 7.4 g and 5.2 g and 7 g and 8.1 g and 6.9 g and 11.2 g and 4.5 g and 7.5 g
same,Serum TG Level,[6]; [11],13.06 mmol/L and 13.49 mmol/L and 11.69 mmol/L and 13.35 mmol/L and 18.18 mmol/L and 14.27 mmol/L and 15.38 mmol/L and 12.93 mmol/L and 15.46 mmol/L and 19.24 mmol/L and 11.73 mmol/L and 15.13 mmol/L and 13.72 mmol/L and 13.59 mmol/L and 15.48 mmol/L
same,"Body Weight Gain, Mean",[6]; [12],7.69 g
same,"Serum TG Level, Mean",[6]; [12],14.45 mmol/L
same,serum BA level,"[6]; in words, vs vehicle control, Day 31, 4-week dosing",significant increase in serum BA level
same,Body Weight Gain,[6]; [13],significantly reduced
same,Serum TG Level,[6]; [13],significantly decreased serum TG level
same,serum HbA1c level,[6]; [14],did not show significant effect
same,serum LDL level,[6]; [14],no significant difference in serum LDL level
same,serum glucose level,[6]; [14],significantly decreased serum glucose level
same,serum insulin level,[6]; [14],considerably decreased serum insulin level
same,Control-adjusted Percent Change in Fasting Blood Glucose,ob/ob mice,−29.3%*
same,Control-adjusted Percent Change in HbA1c Level,ob/ob mice,+0.8%
same,Control-adjusted Percent Change in Insulin Level,ob/ob mice,+4.3%
same,Control-adjusted Percent Change in LDL Level,ob/ob mice,−27.5%*
same,Control-adjusted Percent Change in TG Level,ob/ob mice,−21.2%*
same,NAFLD Activity Score based on blinded histopathologic review,"[7]; 12 weeks, DA 75 then 50 mg/kg BID by gavage, semaglutide 10 mmol/kg sc QD",significantly improved NAFLD Activity Score
same,body weight and body weight change,"[7]; 12 weeks, DA 75 then 50 mg/kg BID, semaglutide 10 mmol/kg sc QD",remarkable effect on body weight
same,HDLs,[7]; end of study,significantly decreased
same,LDLs,[7]; end of study,significantly decreased
same,TGs,[7]; end of study,significantly decreased
O=C1[C@H](CC[C@H](O)c2ccc(F)cc2)[C@@H](c2ccc(O)cc2)N1c1ccc(F)cc1 [Ezetimibe],reduction of LDL cholesterol,[8],about 18%
PYY (3-36): DPP-4 cleaved form of the gut peptide hormone PYY,half-life,[9],< 30 min
PYY: gut peptide hormone released from L-cells,half-life,[10],9 to 14 min
